Data from PubChem BioAssay (NCI).
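Briefly, cells in 96-well plates were exposed to five compound concentrations for 48 h, and endpoints were estimated by linear interpolation. At the GI50, growth is halved. TGI is the concentration that stops growth completely.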

Experiments:
Test in all cases: DTP human tumour cell line panel, 48 h
[1] = test system: K-562 leukemia
[2] = test system: T-47D breast
[3] = test system: NCI-H226 lung
[4] = test system: HCC-2998 colon
[5] = test system: SW-620 colon
[6] = test system: RPMI-8226 leukemia
[7] = test system: KM12 colon
[8] = test system: M14 melanoma
[9] = test system: CCRF-CEM leukemia
[10] = test system: NCI-H23 lung
[11] = test system: OVCAR-4 ovarian
[12] = test system: RXF 393 renal
[13] = test system: SF-295 CNS
[14] = test system: SK-OV-3 ovarian
[15] = test system: OVCAR-8 ovarian
[16] = test system: OVCAR-5 ovarian
[17] = test system: SF-539 CNS
[18] = test system: EKVX NSCLC
[19] = test system: UO-31 renal
[20] = test system: MOLT-4 leukemia
[21] = test system: NCI-H522 lung
[22] = test system: NCI-H460 lung
[23] = test system: SK-MEL-28 melanoma
[24] = test system: MDA-MB-231 breast
[25] = test system: IGROV1 ovarian
[26] = test system: UACC-62 melanoma
[27] = test system: SK-MEL-2 melanoma
[28] = test system: HCT-15 colon
[29] = test system: PC-3 prostate
[30] = test system: LOX IMVI melanoma
[31] = test system: ACHN renal
[32] = test system: MALME-3M melanoma
[33] = test system: MDA-MB-435
[34] = test system: HOP-62 NSCLC
[35] = test system: UACC-257 melanoma
[36] = test system: U251 CNS
[37] = test system: SR leukemia
[38] = test system: HS 578T breast
[39] = test system: A498 renal
[40] = test system: OVCAR-3 ovarian
[41] = test system: HL-60(TB) leukemia
[42] = test system: HT29 colon
[43] = test system: DU-145 prostate
[44] = test system: CAKI-1 renal
[45] = test system: HOP-92 NSCLC
[46] = test system: NCI/ADR-RES ovarian
[47] = test system: A549 NSCLC
[48] = test system: TK-10 renal
[49] = test system: SNB-75 CNS
[50] = test system: BT-549 breast
[51] = test system: HCT-116 colon
[52] = test system: SK-MEL-5 melanoma
[53] = test system: 786-0 renal
[54] = test system: COLO 205 colon
[55] = test system: SN12C renal
[56] = test system: SNB-19 CNS
[57] = test system: SF-268 CNS

Nc1ccc(CC[C@H]2CCC/C=C/[C@@H]3C[C@H](O)C[C@H]3[C@H](O)/C=C/C(=O)O2)cc1 showed a GI50 [1] of 43 nM, a TGI [1] greater than 100000 nM and a GI50 [2] of 75.1 nM. The TGI [2] was greater than 100000 nM, the GI50 [3] was 22.6 nM and the TGI [3] was 70.4 nM. It also gave a GI50 [4] of 26.6 nM, a GI50 [5] of 32.9 nM and a TGI [5] of 203 nM. The GI50 [6] was 32.2 nM, the TGI [6] was 121 nM and the GI50 [7] was 23.5 nM. The TGI [7] was 61.5 nM, the GI50 [8] was 33.7 nM and the TGI [8] was 10700 nM. It also gave a GI50 [9] of 43.7 nM, a TGI [9] greater than 64900 nM and a GI50 [10] of 37.9 nM. The TGI [10] was 1060 nM, the GI50 [11] was 33.9 nM and the TGI [11] was 2730 nM. It also gave a GI50 [12] of 21.5 nM, a TGI [12] of 62.1 nM and a GI50 [13] of 47.6 nM. The TGI [13] was greater than 100000 nM, the GI50 [14] was 48.3 nM and the TGI [14] was greater than 100000 nM. It also gave a GI50 [15] of 40.7 nM, a TGI [15] greater than 100000 nM and a GI50 [16] of 48.1 nM. For the same compound, the TGI [16] was greater than 78100 nM, the GI50 [17] was 56.2 nM and the TGI [17] was greater than 100000 nM. The GI50 [18] was 37.4 nM, the TGI [18] was 2490 nM and the GI50 [19] was 27.6 nM. For the same compound, the TGI [19] was 2340 nM, the GI50 [20] was 29 nM and the TGI [20] was 84.7 nM. For the same compound, the GI50 [21] was 81.6 nM, the TGI [21] was 375 nM and the GI50 [22] was 43 nM. The TGI [22] was greater than 100000 nM, the GI50 [23] was 24.4 nM and the TGI [23] was 1430 nM. The GI50 [24] was 21.2 nM, the TGI [24] was 42.1 nM and the GI50 [25] was 36.7 nM. It also gave a TGI [25] of 175 nM, a GI50 [26] of 48.8 nM and a TGI [26] of 14100 nM. For the same compound, the GI50 [27] was 38.1 nM, the TGI [27] was 180 nM and the GI50 [28] was 45.5 nM. For the same compound, the TGI [28] was 16700 nM, the GI50 [29] was 49.4 nM and the TGI [29] was greater than 100000 nM. It also gave a GI50 [30] of 23.1 nM, a TGI [30] of 56.7 nM and a GI50 [31] of 41.3 nM. The TGI [31] was greater than 100000 nM, the GI50 [32] was 73.1 nM and the TGI [32] was 543 nM. For the same compound, the GI50 [33] was 38.8 nM, the TGI [33] was 25200 nM and the GI50 [34] was 46.3 nM. The GI50 [35] was 56.5 nM, the TGI [35] was 37100 nM and the GI50 [36] was 48 nM. It also gave a TGI [36] greater than 100000 nM, a GI50 [37] of 34.8 nM and a TGI [37] of 7510 nM. It also gave a GI50 [38] of less than 16.3 nM, a TGI [38] greater than 58900 nM and a GI50 [39] of 16.9 nM. The TGI [39] was 49.1 nM, the GI50 [40] was 28.2 nM and the TGI [40] was 76.9 nM. The GI50 [41] was 53.5 nM, the TGI [41] was 1550 nM and the GI50 [42] was 33.6 nM. It also gave a TGI [42] of 577 nM, a GI50 [43] of 107 nM and a TGI [43] greater than 100000 nM. The GI50 [44] was 34.9 nM, the TGI [44] was 1470 nM and the GI50 [45] was 43.6 nM. It also gave a TGI [45] of 530 nM, a GI50 [46] of 37.6 nM and a GI50 [47] of 43.7 nM. The TGI [47] was greater than 100000 nM, the GI50 [48] was 38.2 nM and the TGI [48] was 831 nM. The GI50 [49] was 18.9 nM, the TGI [49] was greater than 100000 nM and the GI50 [50] was 38.1 nM. It also gave a TGI [50] of 16100 nM, a GI50 [51] of 31.4 nM and a TGI [51] of 114 nM. For the same compound, the GI50 [52] was less than 13 nM, the TGI [52] was 23.6 nM and the GI50 [53] was 23.9 nM. For the same compound, the TGI [53] was 57 nM, the GI50 [54] was 18.8 nM and the TGI [54] was 34 nM. The GI50 [55] was 63.9 nM, the TGI [55] was greater than 100000 nM and the GI50 [56] was 50.4 nM. For the same compound, the TGI [56] was greater than 100000 nM, the GI50 [57] was 35.1 nM and the TGI [57] was greater than 100000 nM.
